Reference: ChEMBL document CHEMBL3860052, “Anti-influenza activity of monoterpene-derived substituted hexahydro-2H-chromenes” (Bioorg Med Chem, 2016)
Values after ≈ are worked out from the molar mass of the structure shown.

Columns and labels:
[1] = Antiviral activity against Influenza A virus (A/California/07/2009(H1N1)); format: functional
[2] = Antiviral activity against Influenza A virus (A/California/07/09(H1N1)) pdm09 infected in chicken erythrocytes incubated for 1 hr with supernatants from 1 hr compound pre-treated MDCK cells infected with Influenza A virus (A/California/07/2009(H1N1)) pdm09 for 48 hrs assessed as reduction in viral replication by hemagglutination assay; format: functional, cell-based
[3] = Cytotoxicity against MDCK cells assessed as reduction in cell viability after 48 hrs by MTT assay; format: toxicity, cell-based, Canis lupus familiaris; settings: dog
[4] = Selectivity index, ratio of CC50 for MDCK cells to IC50 for Influenza A virus (A/California/07/09(H1N1)) pdm09; format: functional

SMILES: C=C(C)[C@@H]1CC=C(C)[C@@H](O)[C@@H]1O
- IC50 [1]: 20 µg/mL (≈ 119 µM)

SMILES: CC(N)C12CC3CC(CC(C3)C1)C2 (centres undefined) [RIMANTADINE]
- IC50 [2]: 44 µM
- CC50 at 48 h [3]: 350 µM
- Ratio CC50/IC50 [4]: 8
